Laboratory results from patent US20140155406A1, “4-IMIDAZOPYRIDAZIN-1-YL-BENZAMIDES AND 4-IMIDAZOTRIAZIN-1-YL-BENZAMIDES BTK INHIBITORS” (priority 2011, published 2014).
pEC50: −log10 of the molar value.

Experiments:
Assay type in all cases: biochemical
Lyn enzyme = target: T1, Lyn enzyme (Homo sapiens, UniProt P07948); experiment: Lyn enzyme activity, IMAP fluorescence polarization assay; conditions: 60 min pre-incubation, 2 μM ATP (Km)
T1 construct: purchased Millipore 14-510

Src enzyme = target: T2, Src enzyme (Homo sapiens, UniProt P12931); experiment: Src enzyme activity, IMAP fluorescence polarization assay; conditions: 60 min pre-incubation, 4 μM ATP (Km)
T2 construct: purchased Millipore 14-326
In short: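 Src at 0.2 U/mL final, pre-incubated 60 min at RT with compound (10 μM to 0.316 nM final, 1% DMSO) in pH 7.2 Tris/Mg/Mn buffer. Reaction with 100 nM fluorescein-p34cdc2 peptide and 4 μM ATP (Km) ran 2 h at RT, then IMAP binding and FP at 535 nm. EC50 from curve fit of % control.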

Lck enzyme = target: T3, Lck enzyme (Homo sapiens, UniProt P06239); experiment: Lck enzyme activity, IMAP fluorescence polarization assay; conditions: 60 min pre-incubation, 6 μM ATP (Km)
T3 construct: purchased Millipore 14-442

Measured: pEC50

T3 sequence (P06239 whole entry): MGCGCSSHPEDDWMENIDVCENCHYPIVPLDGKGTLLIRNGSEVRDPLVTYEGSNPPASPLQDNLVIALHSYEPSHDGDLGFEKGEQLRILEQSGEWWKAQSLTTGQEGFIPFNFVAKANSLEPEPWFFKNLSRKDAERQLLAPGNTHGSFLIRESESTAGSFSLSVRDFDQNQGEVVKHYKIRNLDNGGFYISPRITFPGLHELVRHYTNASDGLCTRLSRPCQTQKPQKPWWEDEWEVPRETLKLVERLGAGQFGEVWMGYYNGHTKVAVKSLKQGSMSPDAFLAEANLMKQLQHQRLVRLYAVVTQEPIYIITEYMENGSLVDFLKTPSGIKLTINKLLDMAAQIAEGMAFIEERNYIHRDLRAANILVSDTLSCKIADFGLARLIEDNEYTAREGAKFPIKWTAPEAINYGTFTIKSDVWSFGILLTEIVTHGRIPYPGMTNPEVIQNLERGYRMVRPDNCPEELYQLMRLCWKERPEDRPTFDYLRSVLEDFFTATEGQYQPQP
T2 sequence (P12931 whole entry): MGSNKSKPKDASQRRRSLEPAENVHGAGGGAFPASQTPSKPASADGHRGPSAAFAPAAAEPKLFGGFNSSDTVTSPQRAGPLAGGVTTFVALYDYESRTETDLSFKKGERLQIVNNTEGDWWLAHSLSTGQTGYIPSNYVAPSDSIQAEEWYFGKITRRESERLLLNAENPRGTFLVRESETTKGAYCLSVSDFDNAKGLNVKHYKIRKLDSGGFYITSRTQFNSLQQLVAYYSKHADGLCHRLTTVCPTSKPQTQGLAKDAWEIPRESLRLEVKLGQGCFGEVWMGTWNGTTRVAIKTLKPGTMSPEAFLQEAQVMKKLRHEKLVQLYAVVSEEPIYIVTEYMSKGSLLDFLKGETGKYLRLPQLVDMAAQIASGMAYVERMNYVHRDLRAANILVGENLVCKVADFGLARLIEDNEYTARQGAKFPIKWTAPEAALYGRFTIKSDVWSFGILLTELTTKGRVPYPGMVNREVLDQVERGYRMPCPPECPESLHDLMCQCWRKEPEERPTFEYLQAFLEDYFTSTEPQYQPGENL
T1 sequence (P07948 whole entry): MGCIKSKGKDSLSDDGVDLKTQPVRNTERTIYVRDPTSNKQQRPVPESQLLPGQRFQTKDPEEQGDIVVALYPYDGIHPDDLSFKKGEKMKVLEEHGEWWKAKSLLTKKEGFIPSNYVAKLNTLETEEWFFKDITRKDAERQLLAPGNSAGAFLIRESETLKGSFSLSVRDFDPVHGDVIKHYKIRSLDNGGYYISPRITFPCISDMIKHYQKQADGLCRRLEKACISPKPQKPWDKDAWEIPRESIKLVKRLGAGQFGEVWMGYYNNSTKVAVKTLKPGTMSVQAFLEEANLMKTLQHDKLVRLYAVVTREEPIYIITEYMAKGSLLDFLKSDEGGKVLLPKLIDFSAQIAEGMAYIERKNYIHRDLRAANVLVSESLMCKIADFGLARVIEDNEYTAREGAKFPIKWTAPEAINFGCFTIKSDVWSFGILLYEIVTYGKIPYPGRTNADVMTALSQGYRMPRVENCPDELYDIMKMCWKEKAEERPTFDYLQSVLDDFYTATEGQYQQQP

CC#CC(=O)N[C@@H](C)c1nc(-c2ccc(C(=O)Nc3cc(CCC)ccn3)cc2)c2c(C)nccn12 [Example 38, (S)-4-(3-(1-but-2-ynamidoethyl)-8-methylimidazo[1,5-a]pyrazin-1-yl)-N-(4-propylpyridin-2-yl)benzamide]
≤ 6.00: all assays above

C=CC(=O)N[C@@H](C)c1nc(-c2ccc(C(=O)Nc3cc(C(F)(F)F)ccn3)cc2)c2c(C)nccn12 [Example 8, (S)-4-(3-(1-Acrylamidoethyl)-8-methylimidazo[1,5-a]pyrazin-1-yl)-N-(4-(trifluoromethyl)pyridin-2-yl)benzamide]
≤ 6.00: all assays above

CCCc1ccnc(NC(=O)c2ccc(-c3nc([C@@H]4CCCCN4C(=O)/C=C/CN(C)C)n4ccnc(C)c34)cc2)c1 [Example 3, (S,E)-4-(3-(1-(4-(Dimethylamino)but-2-enoyl)piperidin-2-yl)-8-methylimidazo[1,5-a]pyrazin-1-yl)-N-(4-propylpyridin-2-yl)benzamide]
≤ 6.00: all assays above

CC#CC(=O)N[C@@H](C)c1nc(-c2ccc(C(=O)Nc3cc(C(F)(F)F)ccn3)cc2)c2c(C)nccn12 [Example 7, (S)-4-(3-(1-But-2-ynamidoethyl)-8-methylimidazo[1,5-a]pyrazin-1-yl)-N-(4-(trifluoromethyl)pyridin-2-yl)benzamide]
≤ 6.00: all assays above

COC/C=C/C(=O)N[C@@H](C)c1nc(-c2ccc(C(=O)Nc3cc(C(F)(F)F)ccn3)cc2)c2c(C)nccn12 [Example 6, (S,E)-4-(3-(1-(4-Methoxybut-2-enamido)ethyl)-8-methylimidazo[1,5-a]pyrazin-1-yl)-N-(4-(trifluoromethyl)pyridin-2-yl)benzamide]
≤ 6.00: all assays above

Cc1nccn2c([C@@H]3CCCCN3C(=O)/C=C/CN3CCCC3)nc(-c3ccc(C(=O)Nc4cc(C(F)(F)F)ccn4)cc3)c12 [Example 21, (S,E)-4-(8-methyl-3-(1-(4-(pyrrolidin-1-yl)but-2-enoyl)piperidin-2-yl)imidazo[1,5-a]pyrazin-1-yl)-N-(4-(trifluoromethyl)pyridin-2-yl)benzamide]
≤ 6.00: all assays above

C=CC(=O)N1CCC[C@H]1c1nc(-c2ccc(C(=O)Nc3cc(C#N)ccn3)cc2)c2c(C)nccn12 [Example 13, (S)-4-(3-(1-Acryloylpyrrolidin-2-yl)-8-methylimidazo[1,5-a]pyrazin-1-yl)-N-(4-cyanopyridin-2-yl)benzamide]
≤ 6.00: all assays above

CC#CC(=O)N1CCCC[C@H]1c1nc(-c2ccc(C(=O)Nc3cc(C(F)(F)F)ccn3)cc2)c2c(C)nccn12 [Example 29, (S)-4-(3-(1-but-2-ynoylpiperidin-2-yl)-8-methylimidazo[1,5-a]pyrazin-1-yl)-N-(4-(trifluoromethyl)pyridin-2-yl)benzamide]
≤ 6.00: all assays above

CCCc1ccnc(NC(=O)c2ccc(-c3nc([C@H](C)N(C)C(=O)/C=C/CN(C)C)n4ccnc(C)c34)cc2)c1 [Example 18, (S,E)-4-(3-(1-(4-(dimethylamino)-N-methylbut-2-enamido)ethyl)-8-methylimidazo[1,5-a]pyrazin-1-yl)-N-(4-propylpyridin-2-yl)benzamide]
≤ 6.00: all assays above
